Experimental data taken from US4556715A, “Nicotinic acid derivatives” (Kyorin Pharmaceutical Co., Ltd., priority 1980, dated 1985).
Read-outs that look alike come from different tables or passages of the source.

Experiments:
[1] = tested on: serum and liver lipid levels in rats; experiment: Serum and liver lipid levels and relative liver weight in rats (100 mg/kg, 10 days); format: in vivo, Male rats of the Wistar strain; details: for response vs control in vivo at 100 mg/kg: Rattus norvegicus, po; for response vs control in vivo at 100 mg/kg / Relative liver weight, relative to Control (100): in parentheses, Control = (100); for Liver lipid levels Ch / Liver lipid levels PL / Liver lipid levels TG / Relative liver weight / Serum lipid levels Ch / Serum lipid levels PL / Serum lipid levels TG: 100 mg/kg p.o. 10 days, Mean ± S.E. (n = 9)
Procedure: (2) Male rats of the Wistar strain weighing 160-180 g were fed a stock deit (CE-2, Japan CLEA, Tokyo) and water ad libitum. The present compounds and KCD-232 were suspended, respectively, in a 0.5% of CMC solution and give orally to rats once a day at a dose of 100 mg/kg b.w. for 10 days.
Control rats were received the 0.5% CMC solution alone. The diet was withdrawn immediately after the last administration of compounds. Animals were sacrificed by decapitation 4 hr after the last administration and blood was collected, clotted and centrifuged to obtain serum. The liver was excised quickly and weighed. Total lipids were extracted from the serum and liver, and the levels of Ch, TG and PL were determined colorimetrically.

[2] = tested on: serum and liver lipid levels in rats; experiment: Serum and liver lipid levels and relative liver weight in rats (25 mg/kg, 10 days); format: in vivo, male Wistar rats; details: Table 4; for Liver lipid levels Ch / Liver lipid levels PL / Liver lipid levels TG / Relative liver weight / Serum lipid levels Ch / Serum lipid levels PL / Serum lipid levels TG: 25 mg/kg p.o. 10 days, Mean ± S.E. (n = 7); for Liver lipid levels Ch, relative to Control (100) / Liver lipid levels PL, relative to Control (100) / Liver lipid levels TG, relative to Control (100) / Relative liver weight, relative to Control (100) / Serum lipid levels Ch, relative to Control (100) / Serum lipid levels PL, relative to Control (100) / Serum lipid levels TG, relative to Control (100): in parentheses
Procedure: (3) The present compounds and KCD-232 were orally given to male Wistar rats weighing 160-180 g once a day at a dose of 25 mg/kg b.w. for 10 days. Rats were subjected to fast for 4 hr immediately after the last administration of compounds, thereafter they were sacrificed by decapitation and blood was collected, clotted and centrifuged to obtain serum. The liver was removed quickly and weighed. Total lipids were extracted from the serum and liver, and then the levels of total Ch, TG and PL were determined with colorimetric methods.

in vivo = details: mouse, po, p o, male ICR mice
Source text: The present compounds were given to 6 week-old male mice of the ICR strain and their acute toxicity was examined.

[3] = tested on: serum and liver lipid levels in normal rats; experiment: Effects on relative liver weight, serum and liver lipid levels in normal rats (100 mg/kg, 7 days); format: in vivo, Male Wistar strain rats
Procedure: (1) Effects on relative liver weight, serum and liver lipid levels in normal rats
Male Wistar strain rats, weighing 180-210 g were orally administered the present compounds (X=Cl, n1 =2, 3, 4 and n2 =1) and 4-(4-chlorobenzyloxy)benzyl nicotinate (KCD-232), being X=Cl, n1 =1, n2 =1, respectively, which were suspended in 0.5% carboxymethyl cellulose (CMC) solution once a day at a dose of 100 mg/kg b.w. for 7 days. The last administration was occured in rats fasted overnight. At 4 hr later blood was withdrawn from jugular vein, clotted and centrifuged to obtain serum. The liver was rapidly removed and weighed. Total lipids were extracted from the serum and liver, and cholesterol (Ch), triglycerides (TG) and phospholipids (PL) levels were determined.

[4] = 240 h, Table 3, read-out: Liver lipid levels PL, relative to Control (100)
[5] = Table 3, read-out: Liver lipid levels Ch, relative to Control (100)
[6] = Table 3, read-out: Liver lipid levels TG, relative to Control (100)
[7] = Table 3, read-out: Serum lipid levels Ch, relative to Control (100)
[8] = Table 3, read-out: Serum lipid levels PL, relative to Control (100)
[9] = Table 3, read-out: Serum lipid levels TG, relative to Control (100)
[10] = Table 1, 100 mg/kg p.o. 7 days, fasted overnight, mean ± S.E. (n = 6)
[11] = Table 1, in parentheses, Control = (100)
[12] = 240 h, Table 2, read-out: Liver lipid levels PL, relative to Control (100)
[13] = Table 2, read-out: Liver lipid levels Ch, relative to Control (100)
[14] = Table 2, read-out: Liver lipid levels TG, relative to Control (100)
[15] = Table 2, read-out: Serum lipid levels Ch, relative to Control (100)
[16] = Table 2, read-out: Serum lipid levels PL, relative to Control (100)
[17] = Table 2, read-out: Serum lipid levels TG, relative to Control (100)

## O=C(OCCCc1ccc(OCc2ccc(Cl)cc2)cc1)c1cccnc1 [n1=1, n2=3, 3-[4-(4-Chlorobenzyloxy)phenyl]propyl nicotinate]
[1]; [4]
  response vs control in vivo at 100 mg/kg: 96.1%
[1]; [5]
  response vs control in vivo at 100 mg/kg: 97.8%
[1]; [6]
  response vs control in vivo at 100 mg/kg: 73%
[1]; [7]
  response vs control in vivo at 100 mg/kg: 83.7%
[1]; [8]
  response vs control in vivo at 100 mg/kg: 79.4%
[1]; [9]
  response vs control in vivo at 100 mg/kg: 63.3%
[1]; Table 3
  Liver lipid levels Ch: 2.27 ± 0.09 mg/g liver
  Liver lipid levels PL: 34.8 ± 0.5 mg/g liver
  Liver lipid levels TG: 5.24 ± 0.40 mg/g liver
  Relative liver weight: 3.70 ± 0.05 g/100 g b.w.
  Serum lipid levels Ch: 81.7 ± 2.7 mg/dL
  Serum lipid levels PL: 124 ± 5.5 mg/dL
  Serum lipid levels TG: 79.5 ± 10.4 mg/dL
  Relative liver weight, relative to Control (100): 98
[2]
  Liver lipid levels Ch: 3.23 ± 0.17 mg/g liver
  Liver lipid levels PL: 38.2 ± 0.5 mg/g liver
  Liver lipid levels TG: 3.80 ± 0.50 mg/g liver
  Relative liver weight: 3.53 ± 0.08 g/100 g b.w.
  Serum lipid levels Ch: 66.4 ± 5.3 mg/dL
  Serum lipid levels PL: 85.8 ± 4.8 mg/dL
  Serum lipid levels TG: 29.2 ± 1.7 mg/dL
  Liver lipid levels Ch, relative to Control (100): 99.4
  Liver lipid levels PL, relative to Control (100): 100.5
  Liver lipid levels TG, relative to Control (100): 51.1
  Relative liver weight, relative to Control (100): 100
  Serum lipid levels Ch, relative to Control (100): 84.7
  Serum lipid levels PL, relative to Control (100): 79.3
  Serum lipid levels TG, relative to Control (100): 77.2
In vivo
  LD50: > 4000 mg/kg

## O=C(OCCCCCCc1ccc(OCc2ccc(Cl)cc2)cc1)c1cccnc1 [n1=1, n2=6, 6-[4-(4-Chlorobenzyloxy)phenyl]hexyl nicotinate]
[1]; [4]
  response vs control in vivo at 100 mg/kg: 106%
[1]; [5]
  response vs control in vivo at 100 mg/kg: 107%
[1]; [6]
  response vs control in vivo at 100 mg/kg: 83.7%
[1]; [7]
  response vs control in vivo at 100 mg/kg: 75.3%
[1]; [8]
  response vs control in vivo at 100 mg/kg: 68.9%
[1]; [9]
  response vs control in vivo at 100 mg/kg: 32.1%
[1]; Table 3
  Liver lipid levels Ch: 2.48 ± 0.10 mg/g liver
  Liver lipid levels PL: 38.5 ± 0.7 mg/g liver
  Liver lipid levels TG: 6.01 ± 0.76 mg/g liver
  Relative liver weight: 3.72 ± 0.06 g/100 g b.w.
  Serum lipid levels Ch: 73.5 ± 2.3 mg/dL
  Serum lipid levels PL: 107 ± 3.1 mg/dL
  Serum lipid levels TG: 40.3 ± 3.5 mg/dL
  Relative liver weight, relative to Control (100): 98
[2]
  Liver lipid levels Ch: 2.83 ± 0.18 mg/g liver
  Liver lipid levels PL: 38.8 ± 1.1 mg/g liver
  Liver lipid levels TG: 5.48 ± 0.93 mg/g liver
  Relative liver weight: 3.91 ± 0.09 g/100 g b.w.
  Serum lipid levels Ch: 70 ± 5.5 mg/dL
  Serum lipid levels PL: 100 ± 5.9 mg/dL
  Serum lipid levels TG: 33.5 ± 2.5 mg/dL
  Liver lipid levels Ch, relative to Control (100): 87.1
  Liver lipid levels PL, relative to Control (100): 102.1
  Liver lipid levels TG, relative to Control (100): 73.7
  Relative liver weight, relative to Control (100): 111
  Serum lipid levels Ch, relative to Control (100): 89.3
  Serum lipid levels PL, relative to Control (100): 92.5
  Serum lipid levels TG, relative to Control (100): 88.6
In vivo
  LD50: > 4000 mg/kg

## O=C(OCc1ccc(OCCc2ccc(Cl)cc2)cc1)c1cccnc1 [n1=2, n2=1, 4-[2-(4-Chlorophenyl)ethoxy]benzyl nicotinate]
[3]; 100 mg/kg p.o. 7 days, compared with control
  serum Ch, TG and PL (in words): significantly reduced serum Ch, TG and PL
[3]; [10]
  Liver lipid levels Ch: 3.78 ± 0.10 mg/g liver
  Liver lipid levels PL: 37.2 ± 1.5 mg/g liver
  Liver lipid levels TG: 11.49 ± 1.65 mg/g liver
  Serum lipid levels Ch: 53.5 ± 2.2 mg/dL
  Serum lipid levels PL: 69 ± 2.7 mg/dL
  Serum lipid levels TG: 22.4 ± 4.3 mg/dL
[3]; Table 1, 100 mg/kg p.o. 7 days, mean ± S.E. (n = 6)
  Relative liver weight: 3.17 ± 0.10 g/100 g b.w.
[3]; [11]
  Liver lipid levels Ch, relative to Control (100): 107
  Liver lipid levels PL, relative to Control (100): 101
  Liver lipid levels TG, relative to Control (100): 156
  Relative liver weight, relative to Control (100): 103
  Serum lipid levels Ch, relative to Control (100): 70
  Serum lipid levels PL, relative to Control (100): 68
  Serum lipid levels TG, relative to Control (100): 66
[1]; [12]
  response vs control in vivo at 100 mg/kg: 102%
[1]; [13]
  response vs control in vivo at 100 mg/kg: 96.7%
[1]; [14]
  response vs control in vivo at 100 mg/kg: 87%
[1]; [15]
  response vs control in vivo at 100 mg/kg: 76.7%
[1]; [16]
  response vs control in vivo at 100 mg/kg: 74%
[1]; [17]
  response vs control in vivo at 100 mg/kg: 44%
[1]; Table 2
  Liver lipid levels Ch: 2.94 ± 0.07 mg/g liver
  Liver lipid levels PL: 39.0 ± 0.7 mg/g liver
  Liver lipid levels TG: 5.50 ± 0.59 mg/g liver
  Relative liver weight: 3.98 ± 0.06 g/100 g b.w.
  Serum lipid levels Ch: 66.5 ± 2.2 mg/dL
  Serum lipid levels PL: 110 ± 3.7 mg/dL
  Serum lipid levels TG: 54.4 ± 5 mg/dL
  Relative liver weight, relative to Control (100): 103

## O=C(OCc1ccc(OCCCCCCc2ccc(Cl)cc2)cc1)c1cccnc1 [n1=6, n2=1, 4-[6-(4-Chlorophenyl)hexyloxy]benzyl nicotinate]
[1]; [12]
  response vs control in vivo at 100 mg/kg: 109%
[1]; [13]
  response vs control in vivo at 100 mg/kg: 94.4%
[1]; [14]
  response vs control in vivo at 100 mg/kg: 73.9%
[1]; [15]
  response vs control in vivo at 100 mg/kg: 74.6%
[1]; [16]
  response vs control in vivo at 100 mg/kg: 65.9%
[1]; [17]
  response vs control in vivo at 100 mg/kg: 25.6%
[1]; Table 2
  Liver lipid levels Ch: 2.87 ± 0.08 mg/g liver
  Liver lipid levels PL: 41.6 ± 0.5 mg/g liver
  Liver lipid levels TG: 4.67 ± 0.32 mg/g liver
  Relative liver weight: 4.17 ± 0.07 g/100 g b.w.
  Serum lipid levels Ch: 64.7 ± 3 mg/dL
  Serum lipid levels PL: 97.8 ± 3.8 mg/dL
  Serum lipid levels TG: 31.7 ± 2.8 mg/dL
  Relative liver weight, relative to Control (100): 108
[2]
  Liver lipid levels Ch: 3.14 ± 0.17 mg/g liver
  Liver lipid levels PL: 38.9 ± 0.8 mg/g liver
  Liver lipid levels TG: 3.03 ± 0.41 mg/g liver
  Relative liver weight: 3.91 ± 0.08 g/100 g b.w.
  Serum lipid levels Ch: 54.2 ± 4.9 mg/dL
  Serum lipid levels PL: 72.2 ± 5.6 mg/dL
  Serum lipid levels TG: 24 ± 2.1 mg/dL
  Liver lipid levels Ch, relative to Control (100): 96.7
  Liver lipid levels PL, relative to Control (100): 102.4
  Liver lipid levels TG, relative to Control (100): 40.7
  Relative liver weight, relative to Control (100): 111
  Serum lipid levels Ch, relative to Control (100): 69.1
  Serum lipid levels PL, relative to Control (100): 66.7
  Serum lipid levels TG, relative to Control (100): 63.5
In vivo
  LD50: > 4000 mg/kg
